No end group written: not given here.
Assays:
Assay in all cases: biochemical
Assay type in all cases: binding
HLA-DR DRB1*0802 (DR8) = HLA-DR DRB1*0802 (DR8) (Homo sapiens, UniProt P01903+P01911, A100R/A103L/A169T/F76Y/H45Y/I96F/K41T/L162R/M171V/P40S/Q125H/Q178H/Q39Y/Q99D/R218S/R42G/S66Y/V115G/W38E)
HLA-DR DRB1*0301 (DR3) = HLA-DR DRB1*0301 (DR3) (Homo sapiens, UniProt P01903+P01911, A100K/A102G/A103R/A169T/F55Y/I96L/K41T/L162R/M171V/P40S/Q125H/Q178H/Q39Y/R42S/S66N/T106N/T262R/W38E/Y61H)
HLA-DR DRB4*0101 (DR53) = HLA-DR DRB4*0101 (DR53) (Homo sapiens, UniProt P01903+P13762, G164S); conditions: DRB4 *0101
HLA-DR DRB5*0101 (DR51) = HLA-DR DRB5*0101 (DR51) (Homo sapiens, UniProt P01903+Q30154); conditions: DRB5 *0101
HLA-DR DRB1*1501 (DR15) = HLA-DR DRB1*1501 (DR15) (Homo sapiens, UniProt P01903+P01911); conditions: DRBI *1501
HLA-DR DRB1*1302 (DR13) = HLA-DR DRB1*1302 (DR13) (Homo sapiens, UniProt P01903+P01911, A100E/A169T/K41T/L162R/M171V/P40S/Q125H/Q178H/Q39Y/Q99D/R42S/S66N/T262R/V115G/W38E/Y61H); conditions: DRBI *1302
HLA-DR DRB3*0101 (DR52) = HLA-DR DRB3*0101 (DR52) (Homo sapiens, UniProt P01903+P79483)
HLA-DR DRB1*0401 (DR4) = HLA-DR DRB1*0401 (DR4) (Homo sapiens, UniProt P01903+P01911, A100K/A169T/F76Y/I96L/K127E/L162R/M171V/N62H/P40V/Q125Y/R42H/S133A/S149N/S66Y/V115G/V209L/W38E); conditions: DRB1 *0401
HLA-DR DRB1*1101 (DR11) = HLA-DR DRB1*1101 (DR11) (Homo sapiens, UniProt P01903+P01911, A100R/A169T/A87E/I96F/K41T/L162R/M171V/P40S/Q125H/Q178H/Q39Y/Q99D/R42S/S66Y/T262R/V115G/W38E); conditions: DRB1 *1101
HLA-DR DRB1*0701 (DR7) = HLA-DR DRB1*0701 (DR7) (Homo sapiens, UniProt P01903+P01911, A100R/A102G/A103Q/D57E/D86V/E43K/F76Y/K127E/L162R/M171V/P40G/Q125H/Q99D/R33Q/R42Y/R54Q/S133A/S66F/T210M/V115G/Y107V/Y59L/Y89S); conditions: DRB1 *0701
HLA-DR DRB1*0101 (DR1) = HLA-DR DRB1*0101 (DR1) (Homo sapiens, UniProt P01903+P01911, A100R/D57E/F55L/F60I/F76Y/I96L/L162R/M171V/P40L/Q125E/R42F/V115G/Y59C); conditions: DRB1 *0101
HLA-DR DRB1*0901 (DR9) = HLA-DR DRB1*0901 (DR9) (Homo sapiens, UniProt P01903+P01911, A100R/A103E/D57H/D86V/F55Y/F60I/F76Y/I96F/K127E/L162R/M171V/P40D/Q125H/Q99R/R33Q/R42F/S133A/S66N/T210M/V115G/W38K/Y107V/Y59G/Y89S); conditions: DRB1 *0901

Chain of HLA-DR DRB1*0301 (DR3) (P01903 26-254 limits assumed, other chains not shown): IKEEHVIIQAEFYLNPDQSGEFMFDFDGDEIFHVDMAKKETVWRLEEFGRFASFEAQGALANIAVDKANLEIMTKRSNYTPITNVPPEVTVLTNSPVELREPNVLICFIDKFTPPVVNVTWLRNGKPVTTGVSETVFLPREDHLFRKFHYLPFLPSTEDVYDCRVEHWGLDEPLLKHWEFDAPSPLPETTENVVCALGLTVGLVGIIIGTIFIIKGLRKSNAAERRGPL
Chain of HLA-DR DRB1*1302 (DR13) (P01903 26-254 limits assumed, other chains not shown): as above
Chain of HLA-DR DRB1*1101 (DR11) (P01903 26-254 limits assumed, other chains not shown): as above

| Compound | IC50 (HLA-DR DRB1*0802 (DR8)) [nM] | IC50 (HLA-DR DRB1*0301 (DR3)) [nM] | IC50 (HLA-DR DRB4*0101 (DR53)) [nM] | IC50 (HLA-DR DRB5*0101 (DR51)) [nM] | IC50 (HLA-DR DRB1*1501 (DR15)) [nM] | IC50 (HLA-DR DRB1*1302 (DR13)) [nM] | IC50 (HLA-DR DRB3*0101 (DR52)) [nM] | IC50 (HLA-DR DRB1*0401 (DR4)) [nM] | IC50 (HLA-DR DRB1*1101 (DR11)) [nM] | IC50 (HLA-DR DRB1*0701 (DR7)) [nM] | IC50 (HLA-DR DRB1*0101 (DR1)) [nM] | IC50 (HLA-DR DRB1*0901 (DR9)) [nM] |
| --- | --- | --- | --- | --- | --- | --- | --- | --- | --- | --- | --- | --- |
| RPGLLGASVLGLDDI | > 61200 | 35800 | 22000 | > 88900 | 6000 | 2060 | 30200 | 6520 | > 93900 | – | – | – |
| AKTFLRTLVRGVPEY | 9.2 | 54200 | 472 | 3480 | 829 | 94 | 546 | 208 | 6.3 | 25 | 104 | – |
| ADKIYSISMKHPQEM | 1140 | – | 3550 | – | 8270 | 4960 | > 21900 | 5310 | – | 4100 | – | – |
| CC[C@H](C)[C@H](N)C(=O)N[C@@H](CC(C)C)C(=O)N[C@@H](CC(C)C)C(=O)N[C@@H](Cc1c[nH]c2ccccc12)C(=O)N[C@@H](CCC(N)=O)C(=O)N1CCC[C@H]1C(=O)N[C@H](C(=O)N1CCC[C@H]1C(=O)N[C@H](C(=O)N[C@@H](Cc1c[nH]cn1)C(=O)N[C@H](C(=O)N[C@H](C(=O)N1CCC[C@H]1C(=O)N[C@@H](CC(C)C)C(=O)N[C@@H](CO)C(=O)O)C(C)C)[C@@H](C)O)C(C)C)[C@@H](C)CC | – | > 81800 | 712 | 28800 | 65 | 1110 | > 8830 | 170 | 2340 | 19 | 45 | 131 |
| VILLGRHSLFHPEDT | 737 | 8740 | 10700 | ≥ 100000 | 426 | 543 | > 12100 | 8210 | – | 30600 | 273 | – |
| CC(C)C[C@H](NC(=O)[C@H](CCC(=O)O)NC(=O)[C@H](CCCCN)NC(=O)[C@H](C)N)C(=O)N[C@@H](CCCCN)C(=O)N[C@@H](Cc1ccccc1)C(=O)N[C@H](C(=O)N[C@H](C(=O)N[C@@H](CC(C)C)C(=O)N[C@H](C(=O)N[C@@H](Cc1ccccc1)C(=O)N[C@@H](CCCNC(=N)N)C(=O)N[C@@H](Cc1c[nH]cn1)C(=O)NCC(=O)N[C@@H](CC(=O)O)C(=O)O)C(C)C)[C@@H](C)O)C(C)C | 1950 | 30000 | 51 | 24 | – | 824 | 8560 | 783 | – | – | – | – |
| CC[C@H](C)[C@H](N)C(=O)N[C@@H](Cc1ccc(O)cc1)C(=O)N[C@@H](CO)C(=O)N[C@H](C(=O)N[C@@H](CO)C(=O)N[C@@H](CCSC)C(=O)N[C@@H](CCCCN)C(=O)N[C@@H](Cc1c[nH]cn1)C(=O)N1CCC[C@H]1C(=O)N[C@@H](CCC(N)=O)C(=O)N[C@@H](CCC(=O)O)C(=O)N[C@@H](CCSC)C(=O)N[C@@H](CCCCN)C(=O)N[C@H](C(=O)N[C@@H](Cc1ccc(O)cc1)C(=O)O)[C@@H](C)O)[C@@H](C)CC | 1360 | – | 5360 | 2590 | – | > 35000 | > 21900 | 16000 | 213 | – | 8450 | – |
| CC(C)C[C@H](NC(=O)[C@@H](NC(=O)CN)C(C)C)C(=O)N[C@H](C(=O)N[C@@H](Cc1c[nH]cn1)C(=O)N1CCC[C@H]1C(=O)N[C@@H](CCC(N)=O)C(=O)N[C@@H](Cc1c[nH]c2ccccc12)C(=O)N[C@H](C(=O)N[C@@H](CC(C)C)C(=O)N[C@H](C(=O)N[C@@H](C)C(=O)N[C@@H](C)C(=O)N[C@@H](Cc1c[nH]cn1)C(=O)N[C@@H](CS)C(=O)O)[C@@H](C)O)C(C)C)C(C)C | 1930 | 21300 | 6.2 | – | 66 | 2430 | > 10700 | 67 | – | – | 87 | – |
| GNEIFNTSLFEPPPP | > 163000 | – | 835 | > 200000 | > 91000 | 2800 | > 13200 | > 20000 | > 40000 | > 35700 | 20400 | – |
| QWVLTAAHCLKKNSQ | 98000 | – | 14400 | 382 | > 45500 | > 35000 | > 14900 | > 40000 | – | 3400 | 895 | 4810 |
| CSCC[C@H](NC(=O)CNC(=O)[C@H](CC(C)C)NC(=O)[C@H](CCC(N)=O)NC(=O)[C@@H](NC(=O)[C@H](CC(C)C)NC(=O)[C@H](CCC(N)=O)NC(=O)CNC(=O)[C@@H](N)Cc1ccccc1)[C@@H](C)O)C(=O)N[C@@H](CCC(=O)O)C(=O)N[C@@H](CCC(N)=O)C(=O)N[C@@H](Cc1c[nH]cn1)C(=O)N[C@@H](Cc1ccc(O)cc1)C(=O)N[C@@H](CCC(=O)O)C(=O)N[C@@H](CC(C)C)C(=O)O | 110000 | – | 543 | ≥ 100000 | > 22800 | > 35000 | > 14400 | 3210 | – | > 62500 | 2260 | > 187000 |
| CC(C)C[C@H](NC(=O)[C@@H](NC(=O)[C@H](CCC(N)=O)NC(=O)[C@H](Cc1c[nH]c2ccccc12)NC(=O)[C@@H]1CCCN1C(=O)[C@H](CCC(N)=O)NC(=O)[C@@H](N)CO)C(C)C)C(=O)N[C@H](C(=O)N[C@@H](C)C(=O)N[C@@H](CO)C(=O)N[C@@H](CCCNC(=N)N)C(=O)NCC(=O)N[C@@H](CCCNC(=N)N)C(=O)N[C@@H](C)C(=O)N[C@H](C(=O)O)C(C)C)C(C)C | 386 | > 81800 | 7560 | 84 | 11300 | 32 | > 12100 | 7630 | – | – | 66 | – |
| LFRVYSNFLRGKLKL | 28 | 6160 | 2330 | 2.9 | 2.8 | 80 | 8980 | 643 | 173 | 5.5 | 43 | – |
| CC[C@H](C)[C@H](NC(=O)CNC(=O)[C@H](Cc1ccc(O)cc1)NC(=O)[C@H](CC(C)C)NC(=O)[C@H](CO)NC(=O)[C@H](CC(C)C)NC(=O)[C@H](CC(C)C)NC(=O)[C@H](CO)NC(=O)[C@H](CC(C)C)NC(=O)[C@H](CCC(=O)O)NC(=O)[C@H](CO)NC(=O)[C@H](CC(C)C)NC(=O)[C@H](CCC(=O)O)NC(=O)[C@H](CCCNC(=N)N)NC(=O)[C@@H](N)CC(C)C)C(=O)O | 9370 | – | 544 | 5180 | 235 | 3220 | > 15000 | 371 | 6960 | 4010 | 655 | – |
| RNFYVINRLTGYLRN | – | 2200 | – | 5.6 | 18 | 9.4 | 689 | 219 | 55 | 527 | 1.7 | 7600 |

Source: patent publication US20060079453A1, “Hla binding peptides and their uses” (priority 2002, published 2006)
